Assay results published in ChEMBL document CHEMBL1148590, “Design and synthesis of 3,4-dihydro-1H-[1]-benzothieno[2,3-c]pyran and 3,4-dihydro-1H-pyrano[3,4-b]benzofuran derivatives as non-nucleoside inhibitors of HCV NS5B RNA dependent RNA polymerase” (Bioorg Med Chem Lett, 2006).
Values belong to the compound of their own block, whether it stands above or below them. Activity calls are given as the source filed them. The calls are words filed in the database; no cut-off is given here.

Assays:
[1] = molecular target: RNA-directed RNA polymerase (Hepacivirus hominis, UniProt O39930); test: Displacement of [alpha-32P]GTP from recombinant HCV NS5B RNA dependent RNA polymerase
Chain of RNA-directed RNA polymerase (O39930 whole entry): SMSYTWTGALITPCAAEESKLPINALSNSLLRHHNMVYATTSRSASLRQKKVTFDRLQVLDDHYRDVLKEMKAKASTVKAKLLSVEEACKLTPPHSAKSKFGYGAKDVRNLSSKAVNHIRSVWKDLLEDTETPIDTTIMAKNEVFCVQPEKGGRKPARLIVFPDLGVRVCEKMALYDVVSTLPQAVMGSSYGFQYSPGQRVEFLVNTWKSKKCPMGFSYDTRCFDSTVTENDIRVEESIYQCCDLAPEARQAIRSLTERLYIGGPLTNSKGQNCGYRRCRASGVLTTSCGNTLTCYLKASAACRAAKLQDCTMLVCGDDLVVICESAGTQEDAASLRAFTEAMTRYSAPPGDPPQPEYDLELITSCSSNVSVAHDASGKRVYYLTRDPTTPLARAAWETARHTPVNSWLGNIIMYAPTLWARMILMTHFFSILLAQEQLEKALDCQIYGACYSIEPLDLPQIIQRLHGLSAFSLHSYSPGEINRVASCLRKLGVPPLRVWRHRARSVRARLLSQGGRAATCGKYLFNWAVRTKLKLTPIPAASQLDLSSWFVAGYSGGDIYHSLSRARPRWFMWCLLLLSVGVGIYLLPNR

Huh-7 = test: Cytotoxicity against Huh7 cells by MTS metabolic assay; assay type: functional, cell-based; conditions: Homo sapiens
NS3 = NS3 (Hepatitis C virus, UniProt A3EZJ3); test: Inhibition of HCV NS3 helicase; set-up: species or system Hepacivirus hominis
Chain of NS3 (A3EZJ3 whole entry): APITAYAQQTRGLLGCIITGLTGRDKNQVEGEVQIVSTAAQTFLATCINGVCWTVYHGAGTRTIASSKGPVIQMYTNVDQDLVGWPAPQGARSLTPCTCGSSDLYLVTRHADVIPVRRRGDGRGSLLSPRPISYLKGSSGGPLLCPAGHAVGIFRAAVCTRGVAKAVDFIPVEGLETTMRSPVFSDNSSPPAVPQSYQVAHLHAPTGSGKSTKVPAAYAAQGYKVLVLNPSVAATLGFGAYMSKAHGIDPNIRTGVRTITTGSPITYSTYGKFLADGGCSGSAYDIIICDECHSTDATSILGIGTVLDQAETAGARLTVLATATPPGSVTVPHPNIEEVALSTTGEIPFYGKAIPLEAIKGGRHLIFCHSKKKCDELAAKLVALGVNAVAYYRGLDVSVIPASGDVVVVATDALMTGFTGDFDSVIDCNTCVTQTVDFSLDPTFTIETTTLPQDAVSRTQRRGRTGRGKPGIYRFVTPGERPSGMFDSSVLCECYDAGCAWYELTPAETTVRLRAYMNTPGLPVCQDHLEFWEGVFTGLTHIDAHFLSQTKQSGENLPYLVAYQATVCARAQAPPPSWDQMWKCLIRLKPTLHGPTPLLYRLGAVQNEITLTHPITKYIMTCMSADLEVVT

[2] = molecular target: Human immunodeficiency virus type 1 reverse transcriptase (Human immunodeficiency virus 1, UniProt Q72547); test: Inhibition of HIV reverse transcriptase
Vero = test: Cytotoxicity against vero cells by MTS metabolic assay; assay type: functional, cell-based; conditions: Chlorocebus sabaeus
[3] = molecular target: T1, DNA polymerase subunit gamma-1 (Homo sapiens) (UniProt P54098); test: Inhibitory activity against human mitochondrial DNA polymerase gamma upto 50 uM
T1 sequence (whole entry): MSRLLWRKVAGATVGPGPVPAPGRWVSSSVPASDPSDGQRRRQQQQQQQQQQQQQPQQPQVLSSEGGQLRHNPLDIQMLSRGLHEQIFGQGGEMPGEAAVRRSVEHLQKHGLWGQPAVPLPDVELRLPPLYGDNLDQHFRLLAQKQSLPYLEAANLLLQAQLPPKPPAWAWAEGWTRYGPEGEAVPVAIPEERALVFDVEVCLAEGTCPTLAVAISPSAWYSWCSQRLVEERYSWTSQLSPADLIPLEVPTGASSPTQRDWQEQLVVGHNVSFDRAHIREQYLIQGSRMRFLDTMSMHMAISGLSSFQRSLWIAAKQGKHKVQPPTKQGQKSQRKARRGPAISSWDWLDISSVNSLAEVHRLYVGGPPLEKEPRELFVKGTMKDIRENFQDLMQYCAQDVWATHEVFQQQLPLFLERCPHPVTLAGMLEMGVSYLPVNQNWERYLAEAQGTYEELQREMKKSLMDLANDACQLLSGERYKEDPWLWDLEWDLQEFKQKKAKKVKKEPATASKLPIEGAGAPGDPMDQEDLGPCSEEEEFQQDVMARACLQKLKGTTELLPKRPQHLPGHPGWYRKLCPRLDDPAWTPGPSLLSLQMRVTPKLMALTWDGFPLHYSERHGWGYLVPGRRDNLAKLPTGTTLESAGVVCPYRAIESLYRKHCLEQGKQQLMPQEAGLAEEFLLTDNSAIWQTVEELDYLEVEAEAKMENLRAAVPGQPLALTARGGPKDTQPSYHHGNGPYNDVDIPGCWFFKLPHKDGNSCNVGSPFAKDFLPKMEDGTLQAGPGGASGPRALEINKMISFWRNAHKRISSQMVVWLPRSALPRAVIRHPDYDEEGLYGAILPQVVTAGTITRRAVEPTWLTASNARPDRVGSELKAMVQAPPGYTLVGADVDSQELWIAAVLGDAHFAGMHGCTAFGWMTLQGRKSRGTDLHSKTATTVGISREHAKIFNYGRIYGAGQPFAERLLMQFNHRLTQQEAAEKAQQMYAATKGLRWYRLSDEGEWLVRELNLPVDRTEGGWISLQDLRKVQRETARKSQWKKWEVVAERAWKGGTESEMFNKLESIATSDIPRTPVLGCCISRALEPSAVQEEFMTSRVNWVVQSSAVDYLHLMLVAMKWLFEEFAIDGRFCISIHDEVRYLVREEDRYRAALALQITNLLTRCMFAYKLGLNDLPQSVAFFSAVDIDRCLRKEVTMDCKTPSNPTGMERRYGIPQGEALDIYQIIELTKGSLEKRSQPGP

SMILES: CCCC1(CC(=O)O)OCCc2c1sc1c(C)ccc(C#N)c21 (stereo not drawn)
IC50 [1]: 0.32 µM

SMILES: CCCC1(CC(=O)O)OCCc2c1oc1ccccc21 (stereo not drawn)
IC50 [1]: > 20 µM

SMILES: CCCC1(CC(=O)O)OCCc2c1sc1c(C)cc(F)c(C#N)c21 (stereo not drawn)
IC50 [1]: 0.13 µM

SMILES: CCC[C@@]1(CC(=O)O)OCCc2c1sc1c(C)ccc(C#N)c21
IC50 [1]: 2.85 µM

SMILES: CC1(CC(=O)O)OCCc2c1oc1c(Cl)ccc(Cl)c21 (stereo not drawn)
IC50 [1]: > 20 µM

SMILES: CCC[C@@]1(CC(=O)O)OCCc2c1sc1c(C)cc(F)c(C#N)c21
IC50 [1]: 5.36 µM

SMILES: CCCC1(CC(=O)O)OCCc2c1sc1c(C)cc(F)cc21 (stereo not drawn)
IC50 [1]: > 20 µM

SMILES: CCCC1(CC(=O)O)OCCc2c1sc1ccccc21 (stereo not drawn)
IC50 [1]: > 20 µM

SMILES: CCC[C@]1(CC(=O)O)OCCc2c1sc1c(C)cc(F)c(C#N)c21
IC50 (Huh-7): > 75 µM
IC50 (NS3): > 75 µM
IC50 [2]: > 100 µM
IC50 (Vero): > 75 µM
Activity [3]: inactive
IC50 [1]: 0.05 µM

SMILES: CCC[C@]1(CC(=O)O)OCCc2c1sc1c(C)ccc(C#N)c21
IC50 [1]: 0.17 µM

Next, values leading:

IC50 [1]: 0.75 µM
SMILES: CCCCC1(CC(=O)O)OCCc2c1sc1c(Cl)ccc(Cl)c21 (stereo not drawn)

IC50 [1]: 1.9 µM
SMILES: CCC1(CC(=O)O)OCCc2c1sc1c(Cl)ccc(Cl)c21 (stereo not drawn)

IC50 [1]: 0.14 µM
SMILES: CCCC1(CC(=O)O)OCCc2c1sc1c(Cl)ccc(Cl)c21 (stereo not drawn)

IC50 [1]: 17.6 µM
SMILES: CC1(CC(=O)O)OCCc2c1sc1c(Cl)ccc(Cl)c21 (stereo not drawn)

IC50 [1]: 0.19 µM
SMILES: CCCC1(CC(=O)O)OCCc2c1sc1c(C)ccc(Br)c21 (stereo not drawn)

IC50 [1]: 4.46 µM
SMILES: CCCCC1(CC(=O)O)OCCc2c1oc1c(Cl)ccc(Cl)c21 (stereo not drawn)

IC50 [1]: 1.49 µM
SMILES: CCCC1(CC(=O)O)OCCc2c1oc1c(Cl)ccc(Cl)c21 (stereo not drawn)

IC50 [1]: 16.3 µM
SMILES: CCC1(CC(=O)O)OCCc2c1oc1c(Cl)ccc(Cl)c21 (stereo not drawn)
